In US20240240155A1, “Organoid-Derived Monolayers and Uses Thereof” (Hub Organoids IP B.V., priority 2021, published 2024):

T1: ALK5 (TGF-βR1) (Homo sapiens, UniProt P36897)
T1 sequence (P36897 34-503): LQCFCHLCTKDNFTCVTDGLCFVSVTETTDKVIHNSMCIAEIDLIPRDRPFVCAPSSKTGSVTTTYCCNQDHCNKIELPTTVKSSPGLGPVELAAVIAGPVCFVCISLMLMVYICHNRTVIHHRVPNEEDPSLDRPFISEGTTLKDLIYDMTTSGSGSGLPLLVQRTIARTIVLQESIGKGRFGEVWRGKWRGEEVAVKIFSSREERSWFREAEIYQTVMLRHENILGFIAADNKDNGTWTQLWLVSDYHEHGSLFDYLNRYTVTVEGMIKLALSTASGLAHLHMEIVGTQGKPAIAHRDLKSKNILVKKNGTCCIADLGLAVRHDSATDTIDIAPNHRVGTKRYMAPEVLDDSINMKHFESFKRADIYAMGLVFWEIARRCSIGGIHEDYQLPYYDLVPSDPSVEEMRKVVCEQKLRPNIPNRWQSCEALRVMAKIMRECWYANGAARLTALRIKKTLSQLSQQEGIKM

B1: IFN-γ: proinflammatory cytokine, single treatment (protein, UniProt P01579 24-161, looked up)
Interferon gamma: QDPYVKEAENLKKYFNAGHSDVADNGTLFLGILKNWKEESDRKIMQSQIVSFYFKLFKNFKDDQSIQKSVETIKEDMNVKFFNSNKKKRDDFEKLTNYSVTDLNVQRKAIHELIQVMAELSPAAKTGKRKRSQMLFRG

Columns and labels:
ALK5 (TGF-βR1) = molecular target: T1, ALK5 (TGF-βR1); settings: high concentrations; cited from earlier work
[1] = test system: normal colon derived epithelium monolayers; test: Proinflammatory cytokine titration, barrier injury by TEER; assay type: cell-based, human; settings: cCDM culture condition, 24 hours after cytokine addition
From the text: FIG. 6 illustrates inducing barrier injury to normal colon derived epithelium monolayers on 96 well transwell plates in expansion (CNM) and combination (cCDM) culture conditions by serial titration of proinflammatory cytokines. All proinflammatory cytokines were used at the final concentrations listed on the graph regardless of combination. (A)-(H) illustrate transepithelial […] (TEER) in CNM and cCDM culture conditions. Data are represented as mean±SD for 3 technical replicates. […] EC50 dose response curves were calculated by Non-linear regression log(inhibitor) versus response variable slope (four parameters).
As IFN-γ has major impact in inducing barrier damage via JAK-STAT signalling pathway, we titrated different combinations of three indicated proinflammatory cytokines to resolve TNF-α and IL-1α synergy in combination with IFN-γ. […] The lower sensitivity of organoid-derived epithelium monolayers cultured in CNM correlated with a lower expression of IFN-γ receptor (IFNGR1) compared to the cCDM culture condition.

Row | Molecule | concentration at which it is thought to inhibit ALK5 (ALK5 (TGF-βR1)) [µM] | EC50 calculated from EC50 dose response curves (TEER) [1]
1 | C[S+]([O-])c1ccc(-c2nc(-c3ccc(F)cc3)c(-c3ccncc3)[nH]2)cc1 (centres unmarked) [SB-203580] | ≥ 10 | 
2 | B1 |  | 3.71
